Measured values published in patent USRE42890E1, “Furazanobenzimidazoles” (Basilea Pharmaceutica AG, priority 2003, dated 2011).

Columns and labels:
MRC5 = assay: MTS proliferation assay, MRC5; assay type: cell-based; conditions: MRC5, 72 h incubation; read-out: MTS proliferation assay IC 50 MRC5
How it was run: (§1)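 Antiproliferative read-out by MTS (3 h, A492) after 72 h compound exposure at final 0.3–10 μM (four concentrations). Cells were plated 24 h earlier in RPMI-1640 containing 5% or 10% FCS, cultured at 37 °C with 7.5% CO2.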

Jily = assay: MTS proliferation assay, Jily; assay type: cell-based; conditions: 72 h incubation, read-out: MTS proliferation assay IC 50 Jily
How it was run: as §1

HT1080 = assay: MTS proliferation assay, HT1080; assay type: cell-based, human; conditions: HT1080, 72 h incubation; read-out: MTS proliferation assay IC 50 HT1080
How it was run: (§2)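 Absorbance at 492 nm after 3 h with MTS reagent gave proliferation. This followed 72 h compound exposure (final 0.3, 1, 3, 10 μM) at 37 °C and 7.5% CO2. Cells had been plated 24 h earlier in complete RPMI-1640 with 5% or 10% FCS.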

HeLa = assay: MTS proliferation assay, HeLa; assay type: cell-based, human; conditions: 72 h incubation, read-out: MTS proliferation assay IC 50 HeLa
How it was run: as §2

[1] = test system: adherent cells or suspension cells; assay: Hoechst 33342 nuclear staining (fraction of apoptotic nuclei); assay type: cell-based; parameters: key: 0 relating to no activity; 1 relating to weak activity comprising less than 70% of the cells; score 2 relating to strong activity comprising more than 70% of the cells
Jurkat = assay: MTS proliferation assay, Jurkat; assay type: cell-based, human; conditions: 72 h incubation, read-out: MTS proliferation assay IC 50 Jurkat
How it was run: as §2

COc1ccc(OCn2c(-c3nonc3N)nc3ccccc32)cc1 [Example 90] showed an IC50 (MRC5) of 100 to 1000 nM, an IC50 (Jily) of 100 to 1000 nM and an IC50 (HT1080) of 100 to 1000 nM. For the same molecule, the IC50 (HeLa) was 100 to 1000 nM, the “Hoechst 33342 nuclear staining score” value ([1]; HeLa, conc 0.01 μm) was 0 and the “Hoechst 33342 nuclear staining score” value ([1]; HeLa, conc 0.1 μm) was 0. For the same molecule, the “Hoechst 33342 nuclear staining score” value ([1]; HeLa, conc 1 μm) was 1 (1 relating to weak activity comprising less than 70% of the cells), the “Hoechst 33342 nuclear staining score” value ([1]; Jily, conc 0.01 μm) was 0 and the “Hoechst 33342 nuclear staining score” value ([1]; Jily, conc 0.1 μm) was 0. The “Hoechst 33342 nuclear staining score” value ([1]; Jily, conc 1 μm) was 1 (1 relating to weak activity comprising less than 70% of the cells), the “Hoechst 33342 nuclear staining score” value ([1]; Jurkat, conc 0.01 μm) was 0 and the “Hoechst 33342 nuclear staining score” value ([1]; Jurkat, conc 0.1 μm) was 0. For the same molecule, the “Hoechst 33342 nuclear staining score” value ([1]; Jurkat, conc 1 μm) was 2 (score 2 relating to strong activity comprising more than 70% of the cells), the “Hoechst 33342 nuclear staining score” value ([1]; MRC5, conc 0.01 μm) was 0 and the “Hoechst 33342 nuclear staining score” value ([1]; MRC5, conc 0.1 μm) was 0. The “Hoechst 33342 nuclear staining score” value ([1]; MRC5, conc 1 μm) was 1 (1 relating to weak activity comprising less than 70% of the cells), the “Hoechst 33342 nuclear staining score” value ([1]; PBLs, conc 0.01 μm) was 0 and the “Hoechst 33342 nuclear staining score” value ([1]; PBLs, conc 0.1 μm) was 0. For the same molecule, the “Hoechst 33342 nuclear staining score” value ([1]; PBLs, conc 1 μm) was 0 and the IC50 (Jurkat) was 100 to 1000 nM.
For Nc1nonc1-c1nc2ccccc2n1COc1ccc(C(F)(F)F)cc1 [Example 91], the IC50 (MRC5) was 100 to 1000 nM, the IC50 (Jily) was 100 to 1000 nM and the IC50 (HT1080) was 100 to 1000 nM. The IC50 (HeLa) was 100 to 1000 nM, the “Hoechst 33342 nuclear staining score” value ([1]; HeLa, conc 0.01 μm) was 0 and the “Hoechst 33342 nuclear staining score” value ([1]; HeLa, conc 0.1 μm) was 0. The “Hoechst 33342 nuclear staining score” value ([1]; HeLa, conc 1 μm) was 0, the “Hoechst 33342 nuclear staining score” value ([1]; Jily, conc 0.01 μm) was 0 and the “Hoechst 33342 nuclear staining score” value ([1]; Jily, conc 0.1 μm) was 0. The “Hoechst 33342 nuclear staining score” value ([1]; Jily, conc 1 μm) was 2 (score 2 relating to strong activity comprising more than 70% of the cells), the “Hoechst 33342 nuclear staining score” value ([1]; Jurkat, conc 0.01 μm) was 0 and the “Hoechst 33342 nuclear staining score” value ([1]; Jurkat, conc 0.1 μm) was 0. For the same molecule, the “Hoechst 33342 nuclear staining score” value ([1]; Jurkat, conc 1 μm) was 2 (score 2 relating to strong activity comprising more than 70% of the cells), the “Hoechst 33342 nuclear staining score” value ([1]; MRC5, conc 0.01 μm) was 0 and the “Hoechst 33342 nuclear staining score” value ([1]; MRC5, conc 0.1 μm) was 0. For the same molecule, the “Hoechst 33342 nuclear staining score” value ([1]; MRC5, conc 1 μm) was 0, the “Hoechst 33342 nuclear staining score” value ([1]; PBLs, conc 0.01 μm) was 0 and the “Hoechst 33342 nuclear staining score” value ([1]; PBLs, conc 0.1 μm) was 0. The “Hoechst 33342 nuclear staining score” value ([1]; PBLs, conc 1 μm) was 0 and the IC50 (Jurkat) was 100 to 1000 nM.
Molecule Nc1nonc1-c1nc2ccccc2n1COc1ccc(Cl)c(Cl)c1 [Example 92] has an IC50 (MRC5) of 100 to 1000 nM, an IC50 (Jily) of 10 to 100 nM and an IC50 (HT1080) of 10 to 100 nM. For the same molecule, the IC50 (HeLa) was 10 to 100 nM, the “Hoechst 33342 nuclear staining score” value ([1]; H460, conc 0.01 μm) was 0 and the “Hoechst 33342 nuclear staining score” value ([1]; H460, conc 0.1 μm) was 2 (score 2 relating to strong activity comprising more than 70% of the cells). For the same molecule, the “Hoechst 33342 nuclear staining score” value ([1]; H460, conc 1 μm) was 2 (score 2 relating to strong activity comprising more than 70% of the cells), the “Hoechst 33342 nuclear staining score” value ([1]; HeLa, conc 0.01 μm) was 0 and the “Hoechst 33342 nuclear staining score” value ([1]; HeLa, conc 0.1 μm) was 2 (score 2 relating to strong activity comprising more than 70% of the cells). The “Hoechst 33342 nuclear staining score” value ([1]; HeLa, conc 1 μm) was 2 (score 2 relating to strong activity comprising more than 70% of the cells), the “Hoechst 33342 nuclear staining score” value ([1]; Jily, conc 0.01 μm) was 0 and the “Hoechst 33342 nuclear staining score” value ([1]; Jily, conc 0.1 μm) was 2 (score 2 relating to strong activity comprising more than 70% of the cells). For the same molecule, the “Hoechst 33342 nuclear staining score” value ([1]; Jily, conc 1 μm) was 2 (score 2 relating to strong activity comprising more than 70% of the cells), the “Hoechst 33342 nuclear staining score” value ([1]; Jurkat, conc 0.01 μm) was 0 and the “Hoechst 33342 nuclear staining score” value ([1]; Jurkat, conc 0.1 μm) was 2 (score 2 relating to strong activity comprising more than 70% of the cells). For the same molecule, the “Hoechst 33342 nuclear staining score” value ([1]; Jurkat, conc 1 μm) was 2 (score 2 relating to strong activity comprising more than 70% of the cells), the “Hoechst 33342 nuclear staining score” value ([1]; MRC5, conc 0.01 μm) was 0 and the “Hoechst 33342 nuclear staining score” value ([1]; MRC5, conc 0.1 μm) was 2 (score 2 relating to strong activity comprising more than 70% of the cells). The “Hoechst 33342 nuclear staining score” value ([1]; MRC5, conc 1 μm) was 2 (score 2 relating to strong activity comprising more than 70% of the cells), the “Hoechst 33342 nuclear staining score” value ([1]; PBLs, conc 0.01 μm) was 0 and the “Hoechst 33342 nuclear staining score” value ([1]; PBLs, conc 0.1 μm) was 0. For the same molecule, the “Hoechst 33342 nuclear staining score” value ([1]; PBLs, conc 1 μm) was 0 and the IC50 (Jurkat) was 10 to 100 nM.
Molecule N#CCCNc1nonc1-c1nc2ccccc2n1COc1ccc(Cl)cc1 [Example 93] has an IC50 (MRC5) of 100 to 1000 nM, an IC50 (Jily) of 10 to 100 nM and an IC50 (HT1080) of 100 to 1000 nM. The IC50 (HeLa) was 100 to 1000 nM, the “Hoechst 33342 nuclear staining score” value ([1]; H460, conc 0.01 μm) was 0 and the “Hoechst 33342 nuclear staining score” value ([1]; H460, conc 0.1 μm) was 1 (1 relating to weak activity comprising less than 70% of the cells). The “Hoechst 33342 nuclear staining score” value ([1]; H460, conc 1 μm) was 2 (score 2 relating to strong activity comprising more than 70% of the cells), the “Hoechst 33342 nuclear staining score” value ([1]; HeLa, conc 0.01 μm) was 0 and the “Hoechst 33342 nuclear staining score” value ([1]; HeLa, conc 0.1 μm) was 0. For the same molecule, the “Hoechst 33342 nuclear staining score” value ([1]; HeLa, conc 1 μm) was 2 (score 2 relating to strong activity comprising more than 70% of the cells), the “Hoechst 33342 nuclear staining score” value ([1]; Jily, conc 0.01 μm) was 0 and the “Hoechst 33342 nuclear staining score” value ([1]; Jily, conc 0.1 μm) was 2 (score 2 relating to strong activity comprising more than 70% of the cells). The “Hoechst 33342 nuclear staining score” value ([1]; Jily, conc 1 μm) was 2 (score 2 relating to strong activity comprising more than 70% of the cells), the “Hoechst 33342 nuclear staining score” value ([1]; Jurkat, conc 0.01 μm) was 0 and the “Hoechst 33342 nuclear staining score” value ([1]; Jurkat, conc 0.1 μm) was 2 (score 2 relating to strong activity comprising more than 70% of the cells). For the same molecule, the “Hoechst 33342 nuclear staining score” value ([1]; Jurkat, conc 1 μm) was 2 (score 2 relating to strong activity comprising more than 70% of the cells), the “Hoechst 33342 nuclear staining score” value ([1]; MRC5, conc 0.01 μm) was 0 and the “Hoechst 33342 nuclear staining score” value ([1]; MRC5, conc 0.1 μm) was 0. For the same molecule, the “Hoechst 33342 nuclear staining score” value ([1]; MRC5, conc 1 μm) was 2 (score 2 relating to strong activity comprising more than 70% of the cells), the “Hoechst 33342 nuclear staining score” value ([1]; PBLs, conc 0.01 μm) was 0 and the “Hoechst 33342 nuclear staining score” value ([1]; PBLs, conc 0.1 μm) was 0. For the same molecule, the “Hoechst 33342 nuclear staining score” value ([1]; PBLs, conc 1 μm) was 0 and the IC50 (Jurkat) was 10 to 100 nM.
Molecule N#CCCNc1nonc1-c1nc2ccccc2n1COc1ccc(Br)cc1 [Example 94] has an IC50 (MRC5) of 100 to 1000 nM, an IC50 (Jily) of 10 to 100 nM and an IC50 (HT1080) of 10 to 100 nM. For the same molecule, the IC50 (HeLa) was 10 to 100 nM, the “Hoechst 33342 nuclear staining score” value ([1]; H460, conc 0.01 μm) was 0 and the “Hoechst 33342 nuclear staining score” value ([1]; H460, conc 0.1 μm) was 2 (score 2 relating to strong activity comprising more than 70% of the cells). The “Hoechst 33342 nuclear staining score” value ([1]; H460, conc 1 μm) was 2 (score 2 relating to strong activity comprising more than 70% of the cells), the “Hoechst 33342 nuclear staining score” value ([1]; HeLa, conc 0.01 μm) was 0 and the “Hoechst 33342 nuclear staining score” value ([1]; HeLa, conc 0.1 μm) was 1 (1 relating to weak activity comprising less than 70% of the cells). For the same molecule, the “Hoechst 33342 nuclear staining score” value ([1]; HeLa, conc 1 μm) was 2 (score 2 relating to strong activity comprising more than 70% of the cells), the “Hoechst 33342 nuclear staining score” value ([1]; Jily, conc 0.01 μm) was 0 and the “Hoechst 33342 nuclear staining score” value ([1]; Jily, conc 0.1 μm) was 2 (score 2 relating to strong activity comprising more than 70% of the cells). The “Hoechst 33342 nuclear staining score” value ([1]; Jily, conc 1 μm) was 2 (score 2 relating to strong activity comprising more than 70% of the cells), the “Hoechst 33342 nuclear staining score” value ([1]; Jurkat, conc 0.01 μm) was 0 and the “Hoechst 33342 nuclear staining score” value ([1]; Jurkat, conc 0.1 μm) was 2 (score 2 relating to strong activity comprising more than 70% of the cells). For the same molecule, the “Hoechst 33342 nuclear staining score” value ([1]; Jurkat, conc 1 μm) was 2 (score 2 relating to strong activity comprising more than 70% of the cells), the “Hoechst 33342 nuclear staining score” value ([1]; MRC5, conc 0.01 μm) was 0 and the “Hoechst 33342 nuclear staining score” value ([1]; MRC5, conc 0.1 μm) was 0. The “Hoechst 33342 nuclear staining score” value ([1]; MRC5, conc 1 μm) was 2 (score 2 relating to strong activity comprising more than 70% of the cells), the “Hoechst 33342 nuclear staining score” value ([1]; PBLs, conc 0.01 μm) was 0 and the “Hoechst 33342 nuclear staining score” value ([1]; PBLs, conc 0.1 μm) was 0. The “Hoechst 33342 nuclear staining score” value ([1]; PBLs, conc 1 μm) was 0 and the IC50 (Jurkat) was 10 to 100 nM.
